In patent US20180042982A1, “Methods for Treating HCV” (priority 2013, published 2018):

Experiments:
HCV = assay: Anti-HCV efficacy of Compound 1 at different doses; parameters: species or system Hepatitis C virus; conditions: 200-300 mg Compound 1 compared with 400 mg Compound 1
[1] = system: resistance-associated variants in GT 1b (Con-1) replicon; assay: Activity against resistance-associated variants, GT 1b; assay type: cell-based, Hepatitis C virus
Description: (§1) However, these variants had in vitro replication capacities of only 1.5% and 9.2% that of their corresponding wild-type replicons.

[2] = system: resistance-associated variants in GT 1a (H77) replicon; assay: Activity against resistance-associated variants, GT 1a; assay type: cell-based, Hepatitis C virus
Description: as §1

[3] = system: replicon containing GT3a NS3 protease; assay: Resistant colony selection in replicon containing GT3a NS3 protease; assay type: cell-based, Hepatitis C virus; conditions: concentrations ≧100-fold over its EC50 value
Description: as §1

HCV replicon Genotype 3a = assay: HCV subgenomic stable replicon cell culture assay, genotype 3a; assay type: cell-based; conditions: Hepatitis C virus, read-out: Mean EC50, nM, ± Std. Dev.
Description: as §1

## CC(C)(C)[C@@H]1NC(=O)O[C@@H]2CCC[C@H]2OC/C=C/C(F)(F)c2nc3ccccc3nc2O[C@@H]2C[C@@H](C(=O)N[C@]3(C(=O)NS(=O)(=O)C4(C)CC4)C[C@H]3C(F)F)N(C2)C1=O [Compound 1]
HCV
  anti-HCV efficacy of 200-300 mg versus 400 mg: comparable anti-HCV efficacy
[1]; GT1b variants conferring resistance to other HCV protease inhibitors
  activity against common variants at NS3 amino acid positions 155 and 168: retained its activity
[1]; L28T, Y93H, S282T, C316Y, Y448H and S556G in GT 1b
  activity against NS5A inhibitor and NS5B inhibitor resistance-associated variants: potent activity
[1]; T54A, R155K, D168V and V170A in GT 1b (Con-1)
  inhibitory activity against NS3 resistance-associated variants: nearly equivalent to that against wild-type HCV replicon
[2]; GT1a variants conferring resistance to other HCV protease inhibitors
  activity against common variants at NS3 amino acid positions 155 and 168: retained its activity
[2]; M28T, M28V, Q30D, Q30R, Y93C, Y93H, Y93N, L31V+Y93H, C316Y, M414T, Y448C, Y448H, S556G and S559G in GT 1a
  activity against NS5A inhibitor and NS5B inhibitor resistance-associated variants: potent activity
[2]; V36M, R155K, D168A and D168V in GT 1a (H77)
  inhibitory activity against NS3 resistance-associated variants: nearly equivalent to that against wild-type HCV replicon
[3]
  resistant colony selection: selected very few colonies
HCV replicon Genotype 3a
  EC50: 1.6 ± 0.49 nM
